Literature values, collected in patent US10632442B2, “Apparatus for a mass production of monodisperse biodegradable polymer-based microspheres and a multi-channel forming device incorporatable therein” (INVENTAGE LAB, INC., priority 2016, dated 2020).

Details: in vivo

AUC: 217 ng·days/mL | Cmax: 5.1 ng/mL | Tmax: 7 to 10 days | T½: 35 days
Structure (SMILES): CO/N=C1\C[C@]2(C[C@@H]3C[C@@H](C/C=C(\C)C[C@@H](C)/C=C/C=C4\CO[C@@H]5[C@H](O)C(C)=C[C@@H](C(=O)O3)[C@]45O)O2)O[C@H](/C(C)=C/C(C)C)[C@H]1C [Moxidectin]
